Patent US12721840B2, “Methods of treating glioblastoma multiforme using combination therapy” (MediciNova, Inc., priority 2021, dated 2026)

What was measured:
[1] = literature statement (Sanftner et al Xenobiotica 2009; Chen et al. 2002); cited from earlier work
[2] = test system: GBM orthotopic tumors (SB28 cells); assay: Murine GBM model: survival of mice bearing orthotopic syngeneic SB28 tumors; type: in vivo; conditions: syngeneic mouse model, 20,000 SB28 cells; ibudilast 50 mg/kg, anti-PD1 25 μg/dose; 3 intraperitoneal injections 3 days apart from day 7 post-engraftment; n=10 male mice/group; control 17 days
Description: FIGURE depicts results from a murine glioblastoma model (ibudilast treatment in a syngeneic mouse model (20,000 SB28 cells) synergized with anti-PD1), in which mice are treated with ibudilast, an anti-PD-1 antibody, or a combination of ibudilast and an anti-PD-1 antibody. Isotype serves as negative control for the anti-PD-1 antibody and vehicle serves as negative control for ibudilast. Treatment was initiated at day 7 post-engraftment with 3 intraperitoneal injections 3 days apart; n=10 mice/group (male); median survival provided for each group, *p<0.05, **p<0.01, ***p<0.001 as assessed by log-rank (colored stars indicate comparison to each control group).
Mice bearing GBM orthotopic tumors were subjected to treatment with a PD-1 antibody in the presence or absence of ibudilast (or to ibudilast alone) and evaluated for their survival after the start of treatment. More particularly, ibudilast treatment (50 mg/kg) was performed in a syngeneic mouse model (20,000 SB28 cells) synergized with anti-PD1 (25 μg/dose). Treatment was initiated at day 7 post-engraftment with 3 intraperitoneal injections 3 days apart; n=10 mice/group (male).

| Compound | penetration into the central nervous system (CNS) [1] | median survival [2] |
| --- | --- | --- |
| CC(C)C(=O)c1c(C(C)C)nn2ccccc12 [Ibudilast, 3-isobutyryl-2-isopropylpyrazolo[1,5-a]pyridine] | good CNS penetration | did not impact median survival |
| COc1ccc(C2CNC(=O)C2)cc1OC1CCCC1 (stereo not drawn) [rolipram] | poor penetration into the central nervous system | – |
